System: three different species of yeast and two distinct species of bacteria
Assay: Growth inhibition of the yeast and bacteria strains of Table 5, summary
Type: cell-based
Procedure: For the experiments of the present invention (i) yeast strains obtained from clinical isolates and laboratory isolates, and (ii) bacterial strains obtained from laboratory isolates were used, as described in Table 5 as follows.
The yeast strains were grown in culture medium Sabouraud Dextrose Agar maintained at a temperature of 35° C. for 48 hours.
The bacterial strains were grown in culture medium Triptic Soy Agar at 35° C. for two to six hours (or until the turbidity of a McFarland standard solution equal to 0.5). 5.2 Mounting of Preparations and Test For the experiments, compound 1-[2-(2,4-dichlorophenyl)-2-{[4-(trifluoromethyl)benzyl]oxy}ethyl]-1H-imidazole (BL-123) in the form of its nitrate salt, 1-[2-(2,4-dichlorophenyl)]-2-({4-[(2-phenyl)-2H-tetrazole]benzyl}oxy)ethyl]-1H-imidazole (BL-137), and miconazole nitrate were used. The compounds were dissolved in dimethyl sulfoxide (DMSO) to match the final concentration of the compound equal to or less than 1%.
The methodology used to test the sensitivity of the agent was broth microdilution according to the method described in Standard M27-A2 (Reference method for broth dilution tests to determine the sensitivity of yeasts to antifungal therapy-second edition, NCCLS, volume 22 number 15, USA, 2002) as follows.
The yeast strains were grown according to item 5.1.a to obtain a culture containing between 1×10^6 and 5×10^6 CFU/mL. […]

## FC(F)(F)c1ccc(COC(Cn2ccnc2)c2ccc(Cl)cc2Cl)cc1 (stereo not shown) [BL-123, 1-[2-(2,4-dichlorophenyl)-2-{[4-(trifluoromethyl)benzyl]oxy}ethyl]-1H-imidazole]
  Inhibitory effect on growth (in words): exert an inhibitory effect on the growth
